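Exposure lasted 48 hours, with cells grown in 96-well plates and compounds tested at five concentrations. GI50: concentration for 50% inhibition of growth.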 Active and inactive are the calls of the source. Rule as the data show it: active = GI50 up to about 1.1 µM and inactive = higher.
Experiments:
Experiment in all cases: NCI-60 cell line screen, 48 h
[1] = tested on: 786-0
[2] = tested on: DU-145
[3] = tested on: HCC 2998
[4] = tested on: HOP-92
[5] = tested on: HT-29
[6] = tested on: MDA-MB-435
[7] = tested on: MDA-N
[8] = tested on: Malme-3M
[9] = tested on: NCI-H23
[10] = tested on: NCI-H460
[11] = tested on: OVCAR-5
[12] = tested on: OVCAR-8
[13] = tested on: SK-MEL-28
[14] = tested on: SK-MEL-2
[15] = tested on: SNB-19
[16] = tested on: SW-620
[17] = tested on: TK-10
[18] = tested on: U-251
[19] = tested on: K562
[20] = tested on: RPMI-8226

Row | Compound | GI50 [1] | GI50 [2] | GI50 [3] | GI50 [4] | GI50 [5] | GI50 [6] | GI50 [7] | GI50 [8] | GI50 [9] | GI50 [10] | GI50 [11] | GI50 [12] | GI50 [13] | GI50 [14] | GI50 [15] | GI50 [16] | GI50 [17] | GI50 [18] | GI50 [19] | GI50 [20]
1 | CC1=C(C)C(=O)C(C2=C(C3=CC(=O)C(C)=C(C)C3=O)C(=O)C(C)=C(C)C2=O)=CC1=O | 5.06 µM (inactive) | 14 µM (inactive) | 15.2 µM (inactive) | 0.61 µM (active) | 3.01 µM (inactive) | 3.52 µM (inactive) | 2.65 µM (inactive) | 3.1 µM (inactive) | 14.7 µM (inactive) | 14.9 µM (inactive) | 7.85 µM (inactive) | 4.41 µM (inactive) | 6.87 µM (inactive) | 14.5 µM (inactive) | > 56.8 µM (inactive) | 3.32 µM (inactive) | 12 µM (inactive) | 3.68 µM (inactive) | – | –
2 | CN(C)CCNc1ccc([N+](=O)[O-])c2nc3ccccc3c(N)c12 | 0.535 µM (active) | 0.804 µM (active) | – | 0.547 µM (active) | 0.318 µM (active) | 0.615 µM (active) | 0.585 µM (active) | 0.443 µM (active) | 0.889 µM (active) | 0.318 µM (active) | > 10 µM (inactive) | 0.792 µM (active) | 3.83 µM (inactive) | 1.99 µM (inactive) | 0.895 µM (active) | 0.297 µM (active) | 2.53 µM (inactive) | 0.703 µM (active) | 0.341 µM (active) | 0.31 µM (active)
3 | Nc1c(C(=O)O)nnc2cc(Cl)ccc12 | > 100 µM (inactive) | > 100 µM (inactive) | > 100 µM (inactive) | – | > 100 µM (inactive) | > 100 µM (inactive) | > 100 µM (inactive) | > 100 µM (inactive) | > 100 µM (inactive) | > 100 µM (inactive) | > 100 µM (inactive) | > 100 µM (inactive) | – | > 100 µM (inactive) | > 100 µM (inactive) | > 100 µM (inactive) | > 100 µM (inactive) | > 100 µM (inactive) | > 100 µM (inactive) | –
4 | Nc1nc(N)c(C2=CCN(Cc3ccccc3)CC2)c(=O)[nH]1 | > 100 µM (inactive) | > 100 µM (inactive) | – | > 100 µM (inactive) | > 100 µM (inactive) | > 100 µM (inactive) | > 100 µM (inactive) | > 100 µM (inactive) | > 100 µM (inactive) | > 100 µM (inactive) | > 100 µM (inactive) | > 100 µM (inactive) | > 100 µM (inactive) | > 100 µM (inactive) | > 100 µM (inactive) | > 100 µM (inactive) | – | > 100 µM (inactive) | > 100 µM (inactive) | > 100 µM (inactive)
5 | OC1=C2c3ccccc3NC2Oc2cc(F)ccc21 (stereo unspecified) | 16 µM (inactive) | 18.5 µM (inactive) | 17.9 µM (inactive) | 18 µM (inactive) | 19.8 µM (inactive) | 17.1 µM (inactive) | 15.8 µM (inactive) | 20.4 µM (inactive) | 12.9 µM (inactive) | 18.5 µM (inactive) | 17.9 µM (inactive) | 27 µM (inactive) | 30.1 µM (inactive) | 19.7 µM (inactive) | 20.3 µM (inactive) | 19.6 µM (inactive) | 25.1 µM (inactive) | 15.7 µM (inactive) | 15.6 µM (inactive) | –
6 | CCC(=O)O[C@H]1CC[C@H]2[C@@H]3CCC4=CC(=O)C=C[C@]4(O)[C@H]3CC[C@]12C | 33.7 µM (inactive) | 22.8 µM (inactive) | – | 31.2 µM (inactive) | 19.1 µM (inactive) | 3.11 µM (inactive) | 2.95 µM (inactive) | 48 µM (inactive) | 22 µM (inactive) | 16.3 µM (inactive) | 87.5 µM (inactive) | 23 µM (inactive) | 67.6 µM (inactive) | 15.9 µM (inactive) | 28.4 µM (inactive) | 17.9 µM (inactive) | 57.4 µM (inactive) | 20.5 µM (inactive) | 3.39 µM (inactive) | 8.55 µM (inactive)
7 | CC1(C)O[C@@H](CP(c2cccc3ccccc23)c2cccc3ccccc23)[C@H](CP(c2cccc3ccccc23)c2cccc3ccccc23)O1 | > 100 µM (inactive) | > 100 µM (inactive) | > 100 µM (inactive) | – | > 100 µM (inactive) | > 100 µM (inactive) | > 100 µM (inactive) | – | > 100 µM (inactive) | > 100 µM (inactive) | > 100 µM (inactive) | > 100 µM (inactive) | > 100 µM (inactive) | > 100 µM (inactive) | > 100 µM (inactive) | > 100 µM (inactive) | > 100 µM (inactive) | > 100 µM (inactive) | > 100 µM (inactive) | –
8 | NCCc1ccc(S(=O)(=O)O)cc1[N+](=O)[O-] | > 100 µM (inactive) | > 100 µM (inactive) | – | > 100 µM (inactive) | > 100 µM (inactive) | > 100 µM (inactive) | > 100 µM (inactive) | > 100 µM (inactive) | > 100 µM (inactive) | > 100 µM (inactive) | > 100 µM (inactive) | > 100 µM (inactive) | > 100 µM (inactive) | > 100 µM (inactive) | > 100 µM (inactive) | > 100 µM (inactive) | > 100 µM (inactive) | > 100 µM (inactive) | – | > 100 µM (inactive)
9 | CN(C)C(n1cc2c(c1)-c1ccc(Cl)cc1C(c1ccccc1F)=NC2)n1cc2c(c1)-c1ccc(Cl)cc1C(c1ccccc1F)=NC2 | > 100 µM (inactive) | 54 µM (inactive) | 82 µM (inactive) | – | 14.3 µM (inactive) | > 100 µM (inactive) | 18.4 µM (inactive) | > 100 µM (inactive) | 3.31 µM (inactive) | 51.3 µM (inactive) | 20.2 µM (inactive) | > 100 µM (inactive) | 21.5 µM (inactive) | > 100 µM (inactive) | > 100 µM (inactive) | > 100 µM (inactive) | – | > 100 µM (inactive) | > 100 µM (inactive) | > 100 µM (inactive)
10 | O=C(O)CN1C(=O)C(Cc2ccc(O)cc2)N=C(c2cccc(O)c2)c2ccccc21 (stereo unspecified) | > 100 µM (inactive) | > 100 µM (inactive) | – | > 100 µM (inactive) | > 100 µM (inactive) | > 100 µM (inactive) | 11.5 µM (inactive) | > 100 µM (inactive) | – | > 100 µM (inactive) | > 100 µM (inactive) | > 100 µM (inactive) | > 100 µM (inactive) | > 100 µM (inactive) | > 100 µM (inactive) | > 100 µM (inactive) | > 100 µM (inactive) | > 100 µM (inactive) | > 100 µM (inactive) | > 100 µM (inactive)
11 | Cc1cc(S(=O)(=O)N=C2NCC(C)(C)CN2)c(S)cc1Cl | 32.1 µM (inactive) | 83.6 µM (inactive) | 67.6 µM (inactive) | – | 19.3 µM (inactive) | 23.2 µM (inactive) | 22.2 µM (inactive) | 44.7 µM (inactive) | – | 27.3 µM (inactive) | 23.1 µM (inactive) | 27 µM (inactive) | 36.6 µM (inactive) | 21.3 µM (inactive) | 36.6 µM (inactive) | 17.9 µM (inactive) | 39 µM (inactive) | 23.7 µM (inactive) | 25.5 µM (inactive) | –
12 | Nc1nc2[nH]cc(CCc3ccc(C(=O)N[C@@H](CCC(=O)O)C(=O)O)cc3)c2c(=O)[nH]1 [PEMETREXED] | < 0.0104 µM (active) | > 100 µM (inactive) | < 0.01 µM (active) | > 100 µM (inactive) | > 100 µM (inactive) | > 100 µM (inactive) | > 100 µM (inactive) | > 100 µM (inactive) | > 100 µM (inactive) | 0.0359 µM (active) | > 100 µM (inactive) | – | > 100 µM (inactive) | > 100 µM (inactive) | > 100 µM (inactive) | > 100 µM (inactive) | > 100 µM (inactive) | > 100 µM (inactive) | < 0.0258 µM (active) | –
13 | COc1ccc(P2(=S)Oc3ccccc3-c3ccccc3O2)cc1 | 0.531 µM (active) | 0.542 µM (active) | 0.443 µM (active) | 4.18 µM (inactive) | 0.274 µM (active) | 0.144 µM (active) | 0.147 µM (active) | 0.438 µM (active) | 0.579 µM (active) | 0.35 µM (active) | > 100 µM (inactive) | 0.802 µM (active) | > 67.1 µM (inactive) | 0.596 µM (active) | 0.521 µM (active) | 0.423 µM (active) | – | 0.429 µM (active) | 0.196 µM (active) | –
14 | CC(C)(C)OC(=O)NC(Cc1ccccc1)NC(=O)NC(=O)OCc1ccccc1 (stereo unspecified) | 34.4 µM (inactive) | 87.1 µM (inactive) | 40 µM (inactive) | – | > 100 µM (inactive) | > 100 µM (inactive) | 64 µM (inactive) | 41.8 µM (inactive) | 87.9 µM (inactive) | 63.7 µM (inactive) | > 100 µM (inactive) | 55.5 µM (inactive) | 38.9 µM (inactive) | 34.3 µM (inactive) | 36.5 µM (inactive) | 59.6 µM (inactive) | 53.2 µM (inactive) | 58.5 µM (inactive) | 74.5 µM (inactive) | > 100 µM (inactive)
15 | NC1CC(=O)c2cc(Cl)sc21 (stereo unspecified) | > 100 µM (inactive) | > 100 µM (inactive) | – | > 100 µM (inactive) | > 100 µM (inactive) | > 100 µM (inactive) | > 100 µM (inactive) | > 100 µM (inactive) | > 100 µM (inactive) | > 100 µM (inactive) | > 100 µM (inactive) | > 100 µM (inactive) | > 100 µM (inactive) | > 100 µM (inactive) | > 100 µM (inactive) | > 100 µM (inactive) | > 100 µM (inactive) | > 100 µM (inactive) | 0.929 µM (active) | –
